# According to patent US11376328B2, “Pharmaceutical composition” (Astellas Pharma Inc., priority 2017, dated 2022):
# Test: Solubility in water of the drug substance
# Format: physicochemical
# Conditions: drug substance as used
# Source text: The drug solubility in water of a drug may be determined, for example, in accordance with the method described in the General Notices of The Japanese Pharmacopoeia, Seventeenth Edition.
"solubility at 30 min (water, 20 °C, thermodynamic from solid) [µg/mL]",Solubility in water [µg/mL],Structure (SMILES)
5,,Cc1cccc(C)c1N(CC(=O)Nc1ccc(-c2ncon2)cc1)C(=O)C1CCS(=O)(=O)CC1 [amenamevir]
,4,C=CC[C@@H]1/C=C(\C)C[C@H](C)C[C@H](OC)[C@H]2O[C@@](O)(C(=O)C(=O)N3CCCC[C@H]3C(=O)O[C@H](/C(C)=C/[C@@H]3CC[C@@H](O)[C@H](OC)C3)[C@H](C)[C@@H](O)CC1=O)[C@H](C)C[C@@H]2OC [tacrolimus]
